The values below come from paper PMC5564600 (Oncotarget, 2017).

What all share (experiment): biochemical
What all share (format): binding

Assay [1] concerns the target T1, panel of 442 kinases (Homo sapiens, UniProt Q96RR4).
T1 construct: purchased Ambit Biosciences (scanMAXX KINOMEscan)
As to conditions: CAMKK2; for remaining activity at 1 µM: read-out: % of control at 1 µM.

Assay [2] addresses T2, panel of 442 kinases (Homo sapiens, UniProt O00238).
T2 construct: purchased Ambit Biosciences (scanMAXX KINOMEscan)
As to conditions: BMPR1B; for remaining activity at 1 µM: read-out: % of control at 1 µM.

In assay [3] the target is T3, panel of 442 kinases (Homo sapiens, UniProt O14733).
T3 construct: purchased Ambit Biosciences (scanMAXX KINOMEscan)
T3 sequence (O14733 1-419): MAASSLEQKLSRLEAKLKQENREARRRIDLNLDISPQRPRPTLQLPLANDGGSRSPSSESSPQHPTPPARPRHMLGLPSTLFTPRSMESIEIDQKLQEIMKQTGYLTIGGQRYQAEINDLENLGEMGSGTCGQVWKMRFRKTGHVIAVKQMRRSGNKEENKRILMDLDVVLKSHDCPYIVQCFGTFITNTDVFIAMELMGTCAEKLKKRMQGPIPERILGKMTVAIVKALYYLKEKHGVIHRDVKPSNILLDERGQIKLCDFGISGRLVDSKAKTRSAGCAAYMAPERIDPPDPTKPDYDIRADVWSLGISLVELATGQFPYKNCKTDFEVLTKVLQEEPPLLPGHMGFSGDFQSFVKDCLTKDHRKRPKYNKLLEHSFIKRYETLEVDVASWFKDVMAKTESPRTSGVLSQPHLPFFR
The conditions noted are these: kinase MKK7; for remaining activity at 1 µM: read-out: % of control at 1 µM.

In assay [4] the target is T4, panel of 442 kinases (Homo sapiens, UniProt P51813).
T4 construct: purchased Ambit Biosciences (scanMAXX KINOMEscan)
T4 sequence (P51813 1-675): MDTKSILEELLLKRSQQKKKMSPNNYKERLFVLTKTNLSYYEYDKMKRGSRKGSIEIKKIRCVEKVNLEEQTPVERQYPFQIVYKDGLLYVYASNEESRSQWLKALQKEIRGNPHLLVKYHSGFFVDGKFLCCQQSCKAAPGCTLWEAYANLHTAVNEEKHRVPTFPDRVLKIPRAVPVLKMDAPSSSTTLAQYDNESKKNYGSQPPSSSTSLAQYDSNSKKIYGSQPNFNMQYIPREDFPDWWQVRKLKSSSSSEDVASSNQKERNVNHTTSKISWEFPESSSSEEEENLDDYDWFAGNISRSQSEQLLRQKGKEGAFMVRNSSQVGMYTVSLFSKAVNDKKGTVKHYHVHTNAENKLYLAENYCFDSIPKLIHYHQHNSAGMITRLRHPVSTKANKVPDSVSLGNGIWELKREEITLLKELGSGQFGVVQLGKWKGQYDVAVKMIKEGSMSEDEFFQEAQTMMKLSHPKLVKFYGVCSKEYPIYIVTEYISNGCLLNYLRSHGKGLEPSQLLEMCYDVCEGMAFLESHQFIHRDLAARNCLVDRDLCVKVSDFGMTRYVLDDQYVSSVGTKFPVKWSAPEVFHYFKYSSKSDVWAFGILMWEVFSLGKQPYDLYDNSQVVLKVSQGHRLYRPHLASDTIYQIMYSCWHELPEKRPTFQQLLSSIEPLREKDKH
The conditions noted are these: BMX; for remaining activity at 1 µM: read-out: % of control at 1 µM.

Assay [5] has as its target T5, panel of 442 kinases (Homo sapiens, UniProt O75582).
T5 construct: purchased Ambit Biosciences (scanMAXX KINOMEscan)

In assay [6] the target is T6, panel of 442 kinases (Homo sapiens, UniProt Q99755).
T6 construct: purchased Ambit Biosciences (scanMAXX KINOMEscan)
The conditions noted are these: kinase PIP5K1A; for remaining activity at 1 µM: read-out: % of control at 1 µM.

Assay [7] concerns the target T7, panel of 442 kinases (Homo sapiens, UniProt P36897).
T7 construct: purchased Ambit Biosciences (scanMAXX KINOMEscan)
T7 sequence (P36897 34-503): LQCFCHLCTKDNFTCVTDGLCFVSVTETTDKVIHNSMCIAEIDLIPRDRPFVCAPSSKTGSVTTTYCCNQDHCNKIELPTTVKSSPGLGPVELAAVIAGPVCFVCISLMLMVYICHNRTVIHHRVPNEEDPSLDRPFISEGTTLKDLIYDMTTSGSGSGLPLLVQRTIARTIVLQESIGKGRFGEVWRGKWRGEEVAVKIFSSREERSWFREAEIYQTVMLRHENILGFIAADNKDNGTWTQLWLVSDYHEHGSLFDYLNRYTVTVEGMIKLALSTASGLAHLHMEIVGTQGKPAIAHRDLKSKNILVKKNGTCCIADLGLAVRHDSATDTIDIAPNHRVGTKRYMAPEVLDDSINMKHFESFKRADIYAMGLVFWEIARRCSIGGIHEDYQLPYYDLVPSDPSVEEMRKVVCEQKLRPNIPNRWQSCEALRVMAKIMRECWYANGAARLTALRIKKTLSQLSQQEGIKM
The conditions noted are these: kinase TGFBR1; for remaining activity at 1 µM: read-out: TGFBR1 (% of control at 1 µM).

Assay [8] addresses T8, panel of 442 kinases (Homo sapiens, UniProt P10721, T670I/V559D).
T8 construct: purchased Ambit Biosciences (scanMAXX KINOMEscan)
As to conditions: kinase KIT(V559D,T670I); for remaining activity at 1 µM: read-out: % of control at 1 µM.

The target of assay [9] is T9, panel of 442 kinases (Homo sapiens, UniProt P00533, DEL746-750).
T9 construct: purchased Ambit Biosciences (scanMAXX KINOMEscan)
The conditions noted are these: EGFR(E746-A750del); for remaining activity at 1 µM: read-out: % of control at 1 µM.

The target of assay [10] is T10, panel of 442 kinases (Homo sapiens, UniProt Q9BWU1).
T10 construct: purchased Ambit Biosciences (scanMAXX KINOMEscan)
As to conditions: CDK11; for remaining activity at 1 µM: read-out: % of control at 1 µM.

The target of assay [11] is T11, panel of 442 kinases (Homo sapiens, UniProt P45983).
T11 construct: purchased Ambit Biosciences (scanMAXX KINOMEscan)
The conditions noted are these: kinase JNK1; for remaining activity at 1 µM: read-out: % of control at 1 µM.

For assay [12], the target named is T12, panel of 442 kinases (Homo sapiens, UniProt Q9UQB9).
T12 construct: purchased Ambit Biosciences (scanMAXX KINOMEscan)
T12 sequence (Q9UQB9 1-309): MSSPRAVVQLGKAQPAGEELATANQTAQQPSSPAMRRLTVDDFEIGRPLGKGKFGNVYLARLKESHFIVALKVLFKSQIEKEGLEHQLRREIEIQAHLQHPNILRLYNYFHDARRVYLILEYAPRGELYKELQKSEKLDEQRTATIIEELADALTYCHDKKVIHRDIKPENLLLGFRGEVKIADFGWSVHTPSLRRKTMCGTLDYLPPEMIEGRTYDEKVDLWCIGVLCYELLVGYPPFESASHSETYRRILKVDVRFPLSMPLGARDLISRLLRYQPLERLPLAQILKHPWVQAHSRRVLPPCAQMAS
As to conditions: AURKC; for remaining activity at 1 µM: read-out: % of control at 1 µM.

Setting [13] is: 10 µM, read-out: % of control at 10 µM.
[14] abbreviates: kinase RPS6KA5(Kin.Dom.1-N-terminal), read-out: RPS6KA5(Kin.Dom.1-N-terminal) (% of control at 1 µM).
Setting [15] is: kinase RPS6KA5(Kin.Dom.2-C-terminal), read-out: RPS6KA5(Kin.Dom.2-C-terminal) (% of control at 1 µM).

Where two headings read alike, the source gives them in different places.

T5 sequence (O75582 whole entry): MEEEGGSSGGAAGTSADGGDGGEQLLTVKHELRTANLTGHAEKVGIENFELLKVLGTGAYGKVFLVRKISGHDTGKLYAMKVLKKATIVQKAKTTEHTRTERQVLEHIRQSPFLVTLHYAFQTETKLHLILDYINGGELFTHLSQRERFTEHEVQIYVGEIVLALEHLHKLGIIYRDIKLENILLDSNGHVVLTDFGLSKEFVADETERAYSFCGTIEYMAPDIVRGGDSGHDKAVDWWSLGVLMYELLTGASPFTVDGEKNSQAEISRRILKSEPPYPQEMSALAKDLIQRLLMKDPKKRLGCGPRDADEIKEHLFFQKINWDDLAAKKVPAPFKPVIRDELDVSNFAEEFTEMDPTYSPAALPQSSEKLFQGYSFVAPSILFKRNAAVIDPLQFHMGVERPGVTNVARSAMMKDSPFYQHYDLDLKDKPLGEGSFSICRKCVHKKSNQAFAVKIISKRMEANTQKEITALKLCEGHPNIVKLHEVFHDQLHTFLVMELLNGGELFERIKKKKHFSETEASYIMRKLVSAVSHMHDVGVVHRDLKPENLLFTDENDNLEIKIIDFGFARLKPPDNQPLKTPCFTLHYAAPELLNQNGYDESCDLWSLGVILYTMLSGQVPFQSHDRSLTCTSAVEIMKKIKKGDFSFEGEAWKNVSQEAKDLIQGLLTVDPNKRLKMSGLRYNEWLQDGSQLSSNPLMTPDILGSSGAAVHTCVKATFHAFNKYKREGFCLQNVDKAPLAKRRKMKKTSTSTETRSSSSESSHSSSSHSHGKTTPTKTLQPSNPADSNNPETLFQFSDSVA
T10 sequence (Q9BWU1 whole entry): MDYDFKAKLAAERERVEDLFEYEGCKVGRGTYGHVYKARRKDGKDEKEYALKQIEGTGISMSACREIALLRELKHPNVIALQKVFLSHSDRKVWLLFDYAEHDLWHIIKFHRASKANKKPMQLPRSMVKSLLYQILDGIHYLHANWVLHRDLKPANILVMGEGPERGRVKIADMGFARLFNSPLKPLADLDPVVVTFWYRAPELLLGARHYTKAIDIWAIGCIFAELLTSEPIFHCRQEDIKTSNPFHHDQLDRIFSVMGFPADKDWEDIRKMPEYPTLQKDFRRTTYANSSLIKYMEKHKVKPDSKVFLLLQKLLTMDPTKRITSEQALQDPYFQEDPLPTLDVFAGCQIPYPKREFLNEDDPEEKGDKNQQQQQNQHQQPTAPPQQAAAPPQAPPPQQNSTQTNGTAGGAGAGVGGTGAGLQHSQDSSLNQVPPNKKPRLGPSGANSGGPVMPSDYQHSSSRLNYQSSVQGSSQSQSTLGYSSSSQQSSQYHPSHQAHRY
T8 sequence (P10721 26-976 V559D/T670I): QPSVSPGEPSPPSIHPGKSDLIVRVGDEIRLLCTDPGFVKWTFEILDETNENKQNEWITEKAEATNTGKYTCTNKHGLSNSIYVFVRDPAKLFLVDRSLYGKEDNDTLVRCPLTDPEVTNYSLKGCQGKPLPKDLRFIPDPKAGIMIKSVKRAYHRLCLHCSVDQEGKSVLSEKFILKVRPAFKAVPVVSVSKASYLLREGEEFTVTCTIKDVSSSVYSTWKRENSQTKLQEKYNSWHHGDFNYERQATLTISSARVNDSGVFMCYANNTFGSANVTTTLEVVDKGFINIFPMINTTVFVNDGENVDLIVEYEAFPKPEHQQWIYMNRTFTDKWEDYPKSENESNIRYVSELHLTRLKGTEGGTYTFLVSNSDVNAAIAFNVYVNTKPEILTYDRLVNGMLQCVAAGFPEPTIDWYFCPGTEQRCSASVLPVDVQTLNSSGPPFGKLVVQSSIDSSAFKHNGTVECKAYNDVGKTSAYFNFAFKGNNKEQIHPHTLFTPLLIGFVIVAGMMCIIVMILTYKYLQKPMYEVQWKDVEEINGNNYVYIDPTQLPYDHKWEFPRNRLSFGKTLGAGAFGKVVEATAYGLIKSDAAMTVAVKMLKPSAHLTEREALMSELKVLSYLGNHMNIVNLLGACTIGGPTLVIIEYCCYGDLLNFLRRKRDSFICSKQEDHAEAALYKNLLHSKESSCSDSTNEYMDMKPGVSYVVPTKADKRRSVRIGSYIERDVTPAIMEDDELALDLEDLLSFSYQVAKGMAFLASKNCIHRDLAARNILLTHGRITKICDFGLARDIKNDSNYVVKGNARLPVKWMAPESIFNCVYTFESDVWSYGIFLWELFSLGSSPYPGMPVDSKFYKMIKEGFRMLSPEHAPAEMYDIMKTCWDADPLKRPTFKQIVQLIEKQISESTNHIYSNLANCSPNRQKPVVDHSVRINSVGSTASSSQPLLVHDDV
T6 sequence (Q99755 whole entry): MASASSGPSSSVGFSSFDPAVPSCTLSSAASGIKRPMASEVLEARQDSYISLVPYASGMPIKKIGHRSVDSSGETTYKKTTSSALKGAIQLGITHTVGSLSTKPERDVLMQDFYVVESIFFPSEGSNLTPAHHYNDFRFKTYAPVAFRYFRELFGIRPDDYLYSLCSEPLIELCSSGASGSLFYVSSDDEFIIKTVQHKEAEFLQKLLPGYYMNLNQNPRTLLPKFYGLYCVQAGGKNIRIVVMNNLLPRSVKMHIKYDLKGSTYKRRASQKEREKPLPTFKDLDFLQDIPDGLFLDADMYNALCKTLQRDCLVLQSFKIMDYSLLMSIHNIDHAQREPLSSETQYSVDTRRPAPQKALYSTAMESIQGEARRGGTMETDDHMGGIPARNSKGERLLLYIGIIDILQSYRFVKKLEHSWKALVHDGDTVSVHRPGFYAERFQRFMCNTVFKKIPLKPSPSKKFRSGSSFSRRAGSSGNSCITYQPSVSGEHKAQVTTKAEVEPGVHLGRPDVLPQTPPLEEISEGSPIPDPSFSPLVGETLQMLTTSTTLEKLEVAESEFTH
T2 sequence (O00238 14-502): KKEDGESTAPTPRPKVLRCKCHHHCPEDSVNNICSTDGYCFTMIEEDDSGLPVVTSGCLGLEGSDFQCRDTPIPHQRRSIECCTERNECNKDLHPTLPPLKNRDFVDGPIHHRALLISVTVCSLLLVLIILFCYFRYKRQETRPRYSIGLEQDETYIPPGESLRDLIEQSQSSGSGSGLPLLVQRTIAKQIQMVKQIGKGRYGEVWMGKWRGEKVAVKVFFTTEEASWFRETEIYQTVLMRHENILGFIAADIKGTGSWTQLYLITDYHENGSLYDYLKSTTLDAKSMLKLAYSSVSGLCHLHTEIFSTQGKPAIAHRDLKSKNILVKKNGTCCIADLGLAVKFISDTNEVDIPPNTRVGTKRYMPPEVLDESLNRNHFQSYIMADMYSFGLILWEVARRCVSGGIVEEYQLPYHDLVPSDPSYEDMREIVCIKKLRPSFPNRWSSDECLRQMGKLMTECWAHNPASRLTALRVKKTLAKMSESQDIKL
T11 sequence (P45983 whole entry): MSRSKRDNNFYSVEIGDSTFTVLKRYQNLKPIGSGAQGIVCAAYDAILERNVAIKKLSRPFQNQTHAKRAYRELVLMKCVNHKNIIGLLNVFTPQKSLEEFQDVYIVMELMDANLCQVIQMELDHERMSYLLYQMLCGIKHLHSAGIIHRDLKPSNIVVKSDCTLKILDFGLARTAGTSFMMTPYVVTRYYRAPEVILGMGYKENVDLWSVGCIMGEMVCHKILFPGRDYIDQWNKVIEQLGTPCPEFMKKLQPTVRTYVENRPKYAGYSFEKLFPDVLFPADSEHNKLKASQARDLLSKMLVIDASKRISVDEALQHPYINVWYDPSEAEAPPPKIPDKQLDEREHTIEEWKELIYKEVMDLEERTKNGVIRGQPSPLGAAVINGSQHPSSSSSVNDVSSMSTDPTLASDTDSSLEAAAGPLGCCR
T9 sequence (P00533 with tags, fused parts or gaps DEL746-750): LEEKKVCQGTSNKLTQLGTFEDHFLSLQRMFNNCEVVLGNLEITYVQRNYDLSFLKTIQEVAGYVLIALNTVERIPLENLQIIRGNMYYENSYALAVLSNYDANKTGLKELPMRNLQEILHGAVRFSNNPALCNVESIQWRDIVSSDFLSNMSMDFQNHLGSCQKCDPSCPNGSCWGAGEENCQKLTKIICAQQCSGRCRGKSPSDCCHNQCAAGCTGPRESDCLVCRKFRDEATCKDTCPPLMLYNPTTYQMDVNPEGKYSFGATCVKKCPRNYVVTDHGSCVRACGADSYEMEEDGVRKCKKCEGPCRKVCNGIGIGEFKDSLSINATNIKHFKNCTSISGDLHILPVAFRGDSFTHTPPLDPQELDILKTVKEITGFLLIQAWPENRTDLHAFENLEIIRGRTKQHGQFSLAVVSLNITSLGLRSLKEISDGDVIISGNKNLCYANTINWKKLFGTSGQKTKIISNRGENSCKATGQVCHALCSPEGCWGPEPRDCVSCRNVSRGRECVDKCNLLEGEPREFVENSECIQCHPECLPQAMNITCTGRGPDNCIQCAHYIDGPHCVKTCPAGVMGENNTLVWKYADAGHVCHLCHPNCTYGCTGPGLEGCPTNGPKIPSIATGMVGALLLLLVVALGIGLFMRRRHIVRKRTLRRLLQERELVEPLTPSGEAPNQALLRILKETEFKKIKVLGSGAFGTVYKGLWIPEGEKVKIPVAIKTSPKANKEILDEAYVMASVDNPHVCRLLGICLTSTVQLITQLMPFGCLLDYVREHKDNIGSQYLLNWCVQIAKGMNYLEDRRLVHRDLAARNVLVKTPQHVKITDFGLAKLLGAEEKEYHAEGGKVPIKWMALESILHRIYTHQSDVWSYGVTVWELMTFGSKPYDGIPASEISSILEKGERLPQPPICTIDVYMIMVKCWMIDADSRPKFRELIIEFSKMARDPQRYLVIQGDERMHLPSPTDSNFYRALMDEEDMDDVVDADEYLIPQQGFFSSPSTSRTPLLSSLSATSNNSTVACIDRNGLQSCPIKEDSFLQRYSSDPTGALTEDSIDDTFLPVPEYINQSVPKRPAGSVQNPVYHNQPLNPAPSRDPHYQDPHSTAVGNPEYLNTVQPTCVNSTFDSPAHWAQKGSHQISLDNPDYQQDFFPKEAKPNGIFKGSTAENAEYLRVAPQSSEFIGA

`Nc1cc(C(F)(F)F)c(-c2cc(N3CCOCC3)nc(N3CCOCC3)n2)cn1` [Buparlisib]: the remaining activity at 1 µM in assay [1] came to 100%; in assay [2], 100%; in [3], 100%; in [4], 100%; in [5] (setting [14]), 100%; in assay [5] (setting [15]), 74%. For the same compound, the remaining activity at 1 µM in assay [6] came out at 100%; in assay [7], 100%; in assay [8], 90%; in assay [9], 100%; in assay [10], 100%; in assay [11] it was 98%. The remaining activity at 1 µM in [12] was determined as 100%. Further, the remaining activity at 10 µM in assay [1] (setting [13]) amounted to 100%; in [2] (setting [13]), 100%; in [3] (setting [13]) it was 99%; in assay [4] (setting [13]) it was 100%; in [5] (kinase RPS6KA5(Kin.Dom.1-N-terminal), read-out: RPS6KA5(Kin.Dom.1-N-terminal) (% of control at 10 µM)), 100%; in assay [5] (kinase RPS6KA5(Kin.Dom.2-C-terminal), read-out: RPS6KA5(Kin.Dom.2-C-terminal) (% of control at 10 µM)), 96%. Moreover, the remaining activity at 10 µM in assay [6] (setting [13]) was found to be 100%; in [7] (10 µM, read-out: TGFBR1 (% of control at 10 µM)) it was 100%; in assay [8] (setting [13]), 70%; in assay [9] (setting [13]), 100%; in assay [10] (setting [13]) it was 98%; in [11] (setting [13]) it was 100%. In addition, the remaining activity at 10 µM in [12] (setting [13]) amounted to 91%.
On to `Cn1c(=O)n(-c2ccc(C(C)(C)C#N)cc2)c2c3cc(-c4cnc5ccccc5c4)ccc3ncc21` [Dactolisib, 2-methyl-2-[4-(3-methyl-2-oxo-8-quinolin-3-yl-2,3-dihydroimidazo[4,5-c]quinolin-1-yl)-phenyl] propionitrile], for which the remaining activity at 1 µM in [1] came out at 52%; in assay [2], 91%; in assay [3], 100%; in assay [5] (setting [14]) it was 64%; in assay [5] (setting [15]), 100%; in assay [6], 59%. Further, the remaining activity at 1 µM in [7] turned out to be 89%; in assay [8], 64%; in assay [9], 100%; in [10], 88%; in assay [11] it was 84%; in assay [12] it was 87%.
Take `FC(F)c1nc2ccccc2n1-c1nc(N2CCOCC2)nc(N2CCOCC2)n1` [ZSTK474, 2-(difluoromethyl)-1-[4,6-di(4-morpholinyl)-1,3,5-triazin-2-yl]-1H-benzimidazole]: the remaining activity at 1 µM was found to be 100% in assay [1]; 94% in assay [2]; 100% in assay [3]; 99% in assay [4]; 81% in [5] (setting [14]); 100% in [5] (setting [15]). In addition, the remaining activity at 1 µM was 100% in [6]; 79% in assay [7]; 98% in assay [8]; 94% in assay [9]; 88% in [10]; 86% in assay [11]. Besides, in [12], the remaining activity at 1 µM was found to be 96%.
Regarding `COc1ncc(-c2ccc3nccc(-c4ccnnc4)c3c2)cc1NS(=O)(=O)c1ccc(F)cc1F` [Omipalisib], the remaining activity at 1 µM in assay [1] was 71%; in assay [2], 87%; in assay [3], 100%; in assay [4] it was 96%; in assay [5] (setting [14]) it was 100%; in assay [5] (setting [15]), 100%. Further, the remaining activity at 1 µM in assay [6] was 100%; in assay [7] it was 100%; in assay [8], 100%; in [9] it was 97%; in assay [10], 64%; in assay [11], 100%. Also, the remaining activity at 1 µM in assay [12] was 100%.
